Data on two compounds can be found in ChEMBL document CHEMBL1153803, “Parallel synthesis of chiral pentaamines and pyrrolidine containing bis-heterocyclic libraries. Multiple scaffolds with multiple building blocks: a double diversity for the identification of new antitubercular compounds” (Bioorg Med Chem Lett, 2009).

By MIC is commonly meant the lowest concentration found to suppress growth. One may read the inhibition as the drop in the measured response relative to a control, in per cent. As a reminder, the IC50 is the concentration that inhibits the measured activity by half.

Molecules are shown by their SMILES. ≈ marks a conversion by molar mass, not a printed value.

Assay [1] has as its system Mycobacterium tuberculosis. Kind of assay: Antimicrobial activity against Mycobacterium tuberculosis H37Rv ATCC 27294 by microplate Almar blue assay. It counts as functional. The conditions noted are these: Mycobacterium tuberculosis, H37Rv ATCC 27294; read-out: MIC.
The subject of assay [2] is Mycobacterium tuberculosis. The assay can be described thus: Antimicrobial activity against Mycobacterium tuberculosis H37Rv ATCC 27294 at 6.25 ug/mL by broth microdilution assay. It counts as functional. In general terms: Dilution methods test growth across graded concentrations, often in twofold steps.
The test system of the next assay is Vero. The assay can be described thus: Cytotoxicity against african green monkey Vero cells at after 72 hrs by MTT assay. It counts as cell-based, Chlorocebus sabaeus. Conditions: Chlorocebus sabaeus, Vero, 72 h; read-out: IC50. For orientation: Formazan colour is commonly taken as a measure of viable cells.
Assay [3] can be described thus: Selective index, the ratio of IC50 in the african green monkey Vero cells to the MIC to Mycobacterium tuberculosis H37Rv ATCC 27294. It counts as functional.

In the case of `COc1cccc(CCN2CCN([C@@H](Cc3ccccc3)CN3CCCC3CN3CCNC[C@@H]3Cc3ccccc3)C[C@@H]2Cc2ccccc2)c1` (stereo partly drawn), the MIC in assay [1] turned out to be 3.9 µg/mL (≈ 5.69 µM). For the same compound, the inhibition at 6.25 µg/mL in assay [2] was 99%. In addition, the IC50 with Vero was 0.32 µg/mL (≈ 0.466 µM). For the same compound, the “Selectivity Index” value in assay [3] turned out to be 0.08.

For the compound `COc1ccc(CCN2CCN([C@@H](Cc3ccccc3)CN3CCCC3CN3CCNC[C@@H]3Cc3ccccc3)C[C@@H]2Cc2ccccc2)cc1` (stereo partly drawn), the MIC in assay [1] turned out to be 3.9 µg/mL (≈ 5.69 µM). In assay [2], the inhibition at 6.25 µg/mL amounted to 99%. For the same compound, in the assay on Vero, the IC50 came out at 0.33 µg/mL (≈ 0.481 µM). Also, in assay [3], the “Selectivity Index” value amounted to 0.08.
